Results reported in patent publication US5869500A, “Pyridone compounds useful in treating Alzheimer's disease” (Hoffmann-La Roche Inc., priority 1996, dated 1999).

Legend:
[1] = system: Aβ production in HEK cells over-expressing mutated β-APP (SFAD); assay: Aβ production inhibition, sandwich-ELISA in HEK cells, over-expressed mutated β-APP (SE-SFAD); format: cell-based, human; settings: for IC50: based on the respective plateau of maximum inhibition; for Emax / SE-SFAD max. inhibition %: maximum inhibition plateau; for Emax: read-out: SE-SFAD max. inhibition %
In short: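 HEK cells expressing recombinant human wild-type or mutated (SFAD) β-APP treated with compound for 24 to 48 hours at 37° C, 10% CO2. IC50 based on plateau of maximum inhibition.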

[2] = system: Aβ production in HEK cells over-expressing Wild type β-APP; assay: Aβ production inhibition, sandwich-ELISA in HEK cells which over-express Wild type β-APP (SE-WT); format: cell-based, human; settings: for Emax: HEK293, maximum inhibition plateau, read-out: SE-WT max. inhibition %
Procedure: The effect of test substances on the inhibition of Aβ-amyloid production can be measured in the supernatant of cell cultures of β-APP expressed cells using ELISA tests or other quantitative determination methods for β-APP degradation products. Typically, 8×10^5 cells (e.g. HEK cells, which express recombinant human β-APP variants) are plated out in each well of a culture dish having 24 wells in growth media such as e.g. OPTIMEM (Gibco) and the test compound is then added. After an incubation period of 24 to 48 hours at 37° C. in a 10% CO2 atmosphere the supernatant is removed from the cell cultures and the β-APP degradation products (e.g. Aβ or β-[…]) are determined with the aid of ELISA (or sandwich ELISA) analysis or by means of quantitative immunoprecipitation (after metabolic radiolabelling of the cell proteins). Typically, 300 μl of the cell supernatant are tested according to the state of the art for ELISA tests in culture dishes having 96 wells. In the case of sandwich ELISA for Aβ, the binding antibody can be directed against the first 16 amino acids of Aβ-peptide (e.g. 6E10 Senetek, Maryland Heights, Mo.) and the detection antibody can be directed against amino acids 17-40 or 17-42 of Aβ and carries a detection system such as e.g. peroxidase. A simple ELISA test with an antibody, e.g. 22C11 (Boehringer Mannheim), can be used as the test for […]; the second antibody can be an anti-(mouse) Ig having a detection system, such as e.g. peroxidase. The peroxidase reaction can be carried out e.g. using a TMB substrate (BioRAD) and the measurements can be carried out at 650 nm using an ELISA reading apparatus. […] SE-SFAD signifies the Aβ production inhibition measured using sandwich-ELISA in HEK cells, SFAD signifies over-expressed mutated β-APP, and SE-WT signifies the Aβ production inhibition measured using sandwich-ELISA in HEK cells which over-express Wild type β-APP. The IC50 values are based on the respective plateau of maximum inhibition.

[3] = Homo sapiens, HEK293, HEK cells
[4] = Homo sapiens, HEK293, based on the respective plateau of maximum inhibition

| Compound | IC50 [1, 3] | Emax [1, 3] | IC50 [2, 4] | Emax ([2]; Homo sapiens) | IC50 ([1]; HEK cells) | SE-SFAD max. inhibition % ([1]; HEK cells) | IC50 ([2]; based on the respective plateau of maximum inhibition) | SE-WT max. inhibition % ([2]; maximum inhibition plateau) |
| --- | --- | --- | --- | --- | --- | --- | --- | --- |
| CCOC1CCN(C(=O)c2cc(-c3ccccc3)c(=O)n3ccc4ccsc4c23)C1 (stereo not shown) [Compound 9, 10-(3-Ethoxy-pyrrolidine-1-carbonyl)-8-phenyl-thieno[2,3-a]quinolizin-7-one] | 5 µM | 35% | 40 µM | 50% | – | – | – | – |
| O=C(OCc1cccs1)c1cc(-c2ccccc2)c(=O)n2ccc3ccsc3c12 [Compound 55, Thiophen-2-yl-methyl 7-oxo-8-phenyl-7H-thieno[2,3-a]quinolizine-10-carboxylate] | 4 µM | 50% | 5 µM | 60% | – | – | – | – |
| COC(=O)c1cc(-c2ccccc2)c(=O)n2c1-c1[nH]c3ccccc3c1CC2 [Compound 63, Methyl 4-oxo-3-phenyl-4,6,7,12-tetrahydro-indolo[2,3-a]quinolizine-1-carboxylate] | 1 µM | 65% | 0.6 µM | 45% | – | – | – | – |
| O=C(Nc1nccs1)c1cc(-c2ccccc2)c(=O)n2ccc3ccsc3c12 [Compound 49, 7-Oxo-8-phenyl-7H-thieno[2,3-a]quinolizine-10-carboxylic acid thiazol-2-yl-amide] | 0.7 µM | 50% | 0.5 µM | 50% | – | – | – | – |
| CC(C)C[C@H](N)COC(=O)c1cc(-c2ccccc2)c(=O)n2ccc3ccsc3c12 [Compound 31, 2-(S)-Amino-4-methyl-pentyl 7-oxo-8-phenyl-7H-thieno[2,3-a]-quinolizine-10-carboxylate] | 5.3 µM | 100% | 1.2 µM | 55% | – | – | – | – |
| COC1CCN(C(=O)c2cc(-c3ccccc3)c(=O)n3ccc4ccsc4c23)CC1 [Compound 13, 10-(4-Methoxy-piperidine-1-carbonyl)-8-phenyl-thieno[2,3-a]-quinolizin-7-one] | 5 µM | 30% | 4 µM | 80% | – | – | – | – |
| COC(=O)c1cc(-c2ccccc2OC)c(=O)n2ccc3ccsc3c12 [Compound 129, Methyl 8-(2-methoxy-phenyl)-7-oxo-7H-thieno[2,3-a]quinolizine-10-carboxylate] | – | – | 1.5 µM | 85% | 2.8 µM | 75% | – | – |
| COCCN(CCOC)C(=O)c1cc(-c2ccc(C(C)(C)C)cc2)c(=O)n2ccc3ccsc3c12 [Compound 109, 8-(4-tert-Butyl-phenyl)-7-oxo-7H-thieno[2,3-a]quinolizine-10-carboxylicacid bis-(2-methoxy-ethyl)-amide] | 7.7 µM | 100% | 0.8 µM | 100% | – | – | – | – |
| COCC1CC(OC)CN1C(=O)c1cc(-c2ccccc2)c(=O)n2ccc3ccsc3c12 (stereo not shown) [Compound 8, 10-(4-Methoxy-2-methoxymethyl-pyrrolidine-1-carbonyl)-8-phenylthieno[2,3-a]quinolizin-7-one] | 1 µM | 35% | 12 µM | 25% | – | – | – | – |
| COCCN(CCOC)C(=O)c1cc(-c2ccccc2)c(=O)n2ccc3ccsc3c12 [Compound 22, 7-Oxo-8-phenyl-7H-thieno[2,3-a]quinolizine-10-carboxylic acid bis-(2-methoxy-ethyl)-amide] | 2 µM | 80% | 2.5 µM | 80% | – | – | – | – |
| O=C(ON1C(=O)CCC1=O)c1cc(-c2ccccc2)c(=O)n2ccc3ccsc3c12 [Compound 43, 2,5-Dioxo-pyrrolidin-1-yl 7-oxo-8-phenyl-7H-thieno[2,3-a]quinolizine-10-carboxylate] | 2 µM | 50% | 5 µM | 70% | – | – | – | – |
| CC(C)N(CC#CCOC(=O)c1cc(-c2ccccc2)c(=O)n2ccc3ccsc3c12)C(C)C [Compound 48, 4-Diisopropylamino-but-2-ynyl 7-oxo-8-phenyl-7H-thieno[2,3-a]-quinolizine-10-carboxylate methanesulphonate] | 12 µM | 100% | 3.3 µM | 100% | – | – | – | – |
| O=C(OCC#CCN1CCOCC1)c1cc(-c2ccccc2)c(=O)n2ccc3ccsc3c12 [Compound 46, 4-(Morpholin-4-yl)-but-2-ynyl 7-oxo-8-phenyl-7H-thieno[2,3-a]-quinolizine-10-carboxylate] | 4 µM | 70% | 1 µM | 50% | – | – | – | – |
| COCC1CCCCN1C(=O)c1cc(-c2ccccc2)c(=O)n2ccc3ccsc3c12 (stereo not shown) [Compound 50, 10-(2-Methoxymethyl-piperidine-1-carbonyl)-8-phenyl-thieno[2,3-a]-quinolizin-7-one] | 5.5 µM | 40% | 3.6 µM | 40% | – | – | – | – |
| COCCCN(C)C(=O)c1cc(-c2ccccc2)c(=O)n2ccc3ccsc3c12 [Compound 18, 7-Oxo-8-phenyl-7H-thieno[2,3-a]quinolizine-10-carboxylic acid (3-methoxy-propyl)-methyl-amide] | 4 µM | 30% | 7 µM | 40% | – | – | – | – |
| COC[C@H]1CCCN1C(=O)c1cc(-c2ccccc2)c(=O)n2ccc3ccc(Cl)cc3c12 [Compound 38, 10-Chloro-1-(2-(R)methoxymethyl-pyrrolidine-1-carbonyl)-3-phenyl-pyrido [2,1-a]isoquinolin-4-one] | 7 µM | 100% | 1.5 µM | 70% | – | – | – | – |
| COC[C@@H]1CCCN1C(=O)c1cc(-c2ccccc2)c(=O)n2ccc3ccsc3c12 [Compound 34, 10-(2-(S)-Methoxymethyl-pyrrolidine-1-carbonyl)-8-phenyl-thieno-[2,3-a]-quinolizin-7-one] | 9 µM | 50% | 4 µM | 60% | – | – | – | – |
| CCOC(=O)CN1CCN(C(=O)c2cc(-c3ccccc3)c(=O)n3ccc4ccsc4c23)CC1 [Compound 16, Ethyl [4-(7-oxo-8-phenyl-7H-thieno[2,3-a]quinolizine-10-carbonyl)-piperazin-1-yl]-acetate methanesulphonate] | 3 µM | 30% | 6 µM | 70% | – | – | – | – |
| CN(C)CC=CCOC(=O)c1cc(-c2ccccc2)c(=O)n2ccc3ccsc3c12 [Compound 59, 4-Dimethylamino-but-2-enyl 7-oxo-8-phenyl-7H-thieno[2,3-a]-quinolizine-10-carboxylate methanesulphonate] | 5 µM | 100% | 7 µM | 100% | – | – | – | – |
| O=C(OCC#CCN1CCCC1)c1cc(-c2ccccc2)c(=O)n2ccc3ccsc3c12 [Compound 47, 4-(Pyrrolidin-1-yl)-but-2-ynyl 7-oxo-8-phenyl-7H-thieno[2,3-a]-quinolizine-10-carboxylate methanesulphonate] | 5 µM | 55% | 1.5 µM | 55% | – | – | – | – |
| O=C(c1cc(-c2ccc(O)cc2)c(=O)n2ccc3ccsc3c12)N1CCC[C@@H]1CO [Compound 44, 10-(2-(R)-Hydroxymethyl-pyrrolidine-1-carbonyl)-8-(4-hydroxyphenyl)-thieno[2,3-a]quinolizin-7-one] | 6 µM | 50% | 5 µM | 50% | – | – | – | – |
| O=C1CC[C@@H](COC(=O)c2cc(-c3ccccc3)c(=O)n3ccc4ccsc4c23)N1 [Compound 4, 5-Oxo-pyrrolidin-2-(S)-yl-methyl 7-oxo-8-phenyl-7H-thieno[2,3-a]-quinolizine-10-carboxylate] | 10 µM | 25% | 5 µM | 25% | – | – | – | – |
| CN1CCC[C@H]1COC(=O)c1cc(-c2ccccc2)c(=O)n2ccc3ccsc3c12 [Compound 28, 1-Methyl-pyrrolidin-2-(S)-yl-methyl 7-oxo-8-phenyl-7H-thieno[2,3-a]-quinolizine-10-carboxylate] | 9 µM | 100% | 2 µM | 100% | – | – | – | – |
| 8-(2-Benzoylamino-phenyl)-7-oxo-8-p-tolyl-7H-thieno[2,3-a]-quinolizine-10- carboxylic acid (2-methoxy-ethyl)-phenyl-amide [Compound 152] | – | – | – | – | 1.4 µM | 100% | 1.5 µM | 50-90% |
| COC(=O)c1cc(-c2ccccc2)c(=O)n2ccccc12 [Compound 33, Methyl 4-oxo-3-phenyl-4H-quinolizine-1-carboxylate] | 6 µM | 40% | 5 µM | 40% | – | – | – | – |
